Source: publication PMC5596636 (ACS chemical neuroscience, 2016)
“Also recorded” adds a separate entry of the source.

Key:
mMC1R [1] = molecular target: T1, mMC1R (Mus musculus, UniProt Q01727); settings: B16 murine melanoma cells; relative to α-MSH; cited from earlier work
mMC1R [2] = molecular target: T1, mMC1R; assay: cAMP-based β-galactosidase reporter agonist assay in HEK293 cells, mMC1R; settings: for mMC1R fold difference: potency loss
mMC1R [3] = molecular target: T1, mMC1R; settings: B16 murine melanoma cells; relative to α-MSH; cited from earlier work; remark: listed apart in the source
mMC5R = mMC5R (Mus musculus, UniProt P41149); assay: cAMP-based β-galactosidase reporter agonist assay in HEK293 cells, mMC5R; settings: for mMC5R fold difference: potency loss
rMC3R = settings: HEK293 cells expressing the rMC3R; relative to α-MSH; cited from earlier work
mMC4R = mMC4R (Mus musculus, UniProt P56450); assay: cAMP-based β-galactosidase reporter agonist assay in HEK293 cells, mMC4R; settings: for mMC4R fold difference: potency loss; for selectivity for the mMC4R over the mMC1R: from agonist EC50 values
mMC3R = mMC3R (Mus musculus, UniProt P33033); assay: cAMP-based β-galactosidase reporter agonist assay in HEK293 cells, mMC3R; settings: for selectivity for the mMC3R over the mMC1R: from agonist EC50 values; for mMC3R fold difference: EC50 of substituted peptide divided by EC50 of NDP-MSH, potency loss
hMC4R [4] = settings: cited from earlier work
hMC3R = settings: COS cell-line expressing human melanocortin receptors; cited from earlier work
hMC1R [5] = settings: COS cell-line expressing human melanocortin receptors; cited from earlier work
hMC4R [6] = settings: cited from earlier work; remark: listed apart in the source
hMC1R [7] = settings: cited from earlier work
[8] = EC50 of substituted peptide divided by EC50 of α-MSH
[9] = EC50 of substituted peptide divided by EC50 of NDP-MSH

T1 sequence (Q01727 whole entry): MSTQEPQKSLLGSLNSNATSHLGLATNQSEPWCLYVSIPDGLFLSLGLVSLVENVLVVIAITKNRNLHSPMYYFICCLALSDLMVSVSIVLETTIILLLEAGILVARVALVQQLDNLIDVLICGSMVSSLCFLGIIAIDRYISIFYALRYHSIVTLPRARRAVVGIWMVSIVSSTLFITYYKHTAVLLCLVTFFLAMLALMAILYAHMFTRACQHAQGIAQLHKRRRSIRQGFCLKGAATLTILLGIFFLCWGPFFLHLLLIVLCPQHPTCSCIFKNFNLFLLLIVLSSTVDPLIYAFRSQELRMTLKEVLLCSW
mMC5R, sequence (P41149 whole entry): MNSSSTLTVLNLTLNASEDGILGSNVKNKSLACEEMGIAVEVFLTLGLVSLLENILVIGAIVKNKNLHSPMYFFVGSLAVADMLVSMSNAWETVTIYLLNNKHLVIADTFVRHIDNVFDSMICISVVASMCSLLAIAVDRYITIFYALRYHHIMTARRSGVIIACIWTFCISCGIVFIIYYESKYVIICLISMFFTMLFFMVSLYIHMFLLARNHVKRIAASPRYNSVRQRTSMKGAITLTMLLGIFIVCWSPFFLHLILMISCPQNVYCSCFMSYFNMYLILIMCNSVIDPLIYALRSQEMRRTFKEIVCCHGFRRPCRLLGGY
mMC4R, sequence (P56450 whole entry): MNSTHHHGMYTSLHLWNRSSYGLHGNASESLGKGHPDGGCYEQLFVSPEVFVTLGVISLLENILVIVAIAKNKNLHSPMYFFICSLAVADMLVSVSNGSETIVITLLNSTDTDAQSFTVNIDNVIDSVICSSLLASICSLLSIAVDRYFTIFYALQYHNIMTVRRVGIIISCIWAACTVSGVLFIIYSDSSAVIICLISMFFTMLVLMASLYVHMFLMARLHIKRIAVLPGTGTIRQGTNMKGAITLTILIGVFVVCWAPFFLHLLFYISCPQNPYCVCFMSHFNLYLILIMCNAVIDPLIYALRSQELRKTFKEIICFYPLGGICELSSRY
mMC3R, sequence (P33033 whole entry): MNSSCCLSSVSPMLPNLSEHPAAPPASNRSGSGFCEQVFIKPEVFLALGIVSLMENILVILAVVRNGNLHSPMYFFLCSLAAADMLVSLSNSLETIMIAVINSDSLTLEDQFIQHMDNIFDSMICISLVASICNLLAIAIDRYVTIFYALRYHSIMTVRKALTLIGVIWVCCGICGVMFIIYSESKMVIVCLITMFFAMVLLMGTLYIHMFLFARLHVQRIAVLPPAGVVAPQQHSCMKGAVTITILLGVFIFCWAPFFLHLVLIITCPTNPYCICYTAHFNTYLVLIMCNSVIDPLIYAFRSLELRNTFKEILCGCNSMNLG

mMC1R fold difference (mMC1R [2]; [8])	mMC5R fold difference (mMC5R; [8])	mMC4R fold difference (mMC4R; [8])	EC50 (mMC3R)	mMC1R fold difference (mMC1R [2]; [9])	mMC5R fold difference (mMC5R; [9])	mMC4R fold difference (mMC4R; [9])	Compound	fold decreased tyrosinase potency at the mMC1R (mMC1R [1])	fold decreased binding affinity at the mMC1R (mMC1R [3])	fold decreased binding affinity at the rMC3R (rMC3R)	also measured
26 fold	within experimental error	within experimental error	12.1 ± 6.35 nM	–	–	–	CSCC[C@H](NC(=O)[C@H](C)NC(=O)[C@H](Cc1ccc(O)cc1)NC(=O)[C@H](CO)NC(C)=O)C(=O)N[C@@H](CCC(=O)O)C(=O)N[C@@H](Cc1c[nH]cn1)C(=O)N[C@@H](Cc1ccccc1)C(=O)N[C@@H](CCCNC(=N)N)C(=O)N[C@@H](Cc1c[nH]c2ccccc12)C(=O)NCC(=O)N[C@@H](CCCCN)C(=O)N1CCC[C@H]1C(=O)N[C@H](C(N)=O)C(C)C [[Ala^3]α-MSH]	equipotent	equipotent	equipotent	–
400 fold	did not alter potency	5 fold	17.4 ± 6.12 nM	–	–	–	CC(=O)N[C@@H](CO)C(=O)N[C@@H](Cc1ccc(O)cc1)C(=O)N[C@@H](CO)C(=O)N[C@@H](C)C(=O)N[C@@H](CCC(=O)O)C(=O)N[C@@H](Cc1c[nH]cn1)C(=O)N[C@@H](Cc1ccccc1)C(=O)N[C@@H](CCCNC(=N)N)C(=O)N[C@@H](Cc1c[nH]c2ccccc12)C(=O)NCC(=O)N[C@@H](CCCCN)C(=O)N1CCC[C@H]1C(=O)N[C@H](C(N)=O)C(C)C [[Ala^4]α-MSH]	59 fold	140 fold	14 fold	selectivity for the mMC5R over the mMC1R (mMC5R; from agonist EC50 values): 210 fold; selectivity for the mMC4R over the mMC1R (mMC4R): 100 fold; selectivity for the mMC3R over the mMC1R (mMC3R): 710 fold
–	–	–	1.18 ± 0.4 nM	no change	no change	4 fold	CCCC[C@H](NC(=O)[C@H](CO)NC(=O)[C@H](Cc1ccc(O)cc1)NC(=O)[C@H](CO)NC(C)=O)C(=O)N[C@@H](C)C(=O)N[C@@H](Cc1c[nH]cn1)C(=O)N[C@H](Cc1ccccc1)C(=O)N[C@@H](CCCNC(=N)N)C(=O)N[C@@H](Cc1c[nH]c2ccccc12)C(=O)NCC(=O)N[C@@H](CCCCN)C(=O)N1CCC[C@H]1C(=O)N[C@H](C(N)=O)C(C)C [[Ala^5]NDP-MSH, Ac-Ser-Tyr-Ser-Nle-Ala-His-DPhe-Arg-Trp-Gly-Lys-Pro-Val-NH2]	–	–	–	fold decreased agonist potency at the hMC4R relative to NDP-MSH (hMC4R [4]): 4 fold; mMC3R fold difference (mMC3R): 5 fold
1560 fold	unaltered	15 fold	220 ± 55 nM	–	–	–	CSCC[C@H](NC(=O)[C@H](CO)NC(=O)[C@H](Cc1ccc(O)cc1)NC(=O)[C@H](CO)NC(C)=O)C(=O)N[C@@H](C)C(=O)N[C@@H](Cc1c[nH]cn1)C(=O)N[C@@H](Cc1ccccc1)C(=O)N[C@@H](CCCNC(=N)N)C(=O)N[C@@H](Cc1c[nH]c2ccccc12)C(=O)NCC(=O)N[C@@H](CCCCN)C(=O)N1CCC[C@H]1C(=O)N[C@H](C(N)=O)C(C)C [[Ala^5]α-MSH]	equipotent	equipotent	equipotent	EC50 (mMC1R [2]; mMC1R EC50, bound, Table 2, EC50 higher than 20 μM): > 20000 nM; selectivity for the mMC5R over the mMC1R (mMC5R; from agonist EC50 values): 740 fold; selectivity for the mMC4R over the mMC1R (mMC4R): 130 fold; selectivity for the mMC3R over the mMC1R (mMC3R): 220 fold
–	–	–	0.55 ± 0.12 nM	did not alter agonist potency	did not alter agonist potency	did not alter agonist potency	CCCC[C@H](NC(=O)[C@H](CO)NC(=O)[C@H](Cc1ccc(O)cc1)NC(=O)[C@H](CO)NC(C)=O)C(=O)N[C@@H](CCC(=O)O)C(=O)N[C@@H](C)C(=O)N[C@H](Cc1ccccc1)C(=O)N[C@@H](CCCNC(=N)N)C(=O)N[C@@H](Cc1c[nH]c2ccccc12)C(=O)NCC(=O)N[C@@H](CCCCN)C(=O)N1CCC[C@H]1C(=O)N[C@H](C(N)=O)C(C)C [[Ala^6]NDP-MSH, Ac-Ser-Tyr-Ser-Nle-Glu-Ala-DPhe-Arg-Trp-Gly-Lys-Pro-Val-NH2]	–	–	–	fold decreased binding affinity at the hMC3R (hMC3R): 6 fold; fold decreased binding affinity at the hMC1R (hMC1R [5]): 8 fold; fold decreased agonist potency at the hMC4R relative to NDP-MSH (hMC4R [4]): 4 fold; efficacy relative to NDP-MSH at the hMC4R (hMC4R [6]): 40%; fold agonist potency loss at the hMC4R relative to NDP-MSH (hMC4R [6]): equipotent; mMC3R fold difference (mMC3R): did not alter agonist potency; also recorded: equipotency
35 fold	45 fold	110 fold	4270 ± 1960 nM	–	–	–	CSCC[C@H](NC(=O)[C@H](CO)NC(=O)[C@H](Cc1ccc(O)cc1)NC(=O)[C@H](CO)NC(C)=O)C(=O)N[C@@H](CCC(=O)O)C(=O)N[C@@H](C)C(=O)N[C@@H](Cc1ccccc1)C(=O)N[C@@H](CCCNC(=N)N)C(=O)N[C@@H](Cc1c[nH]c2ccccc12)C(=O)NCC(=O)N[C@@H](CCCCN)C(=O)N1CCC[C@H]1C(=O)N[C@H](C(N)=O)C(C)C [[Ala^6]α-MSH]	6 fold	83 fold	6 fold	–
200 fold	210 fold	190 fold	1660 ± 825 nM	–	–	–	CSCC[C@H](NC(=O)[C@H](CO)NC(=O)[C@H](Cc1ccc(O)cc1)NC(=O)[C@H](CO)NC(C)=O)C(=O)N[C@@H](CCC(=O)O)C(=O)N[C@@H](Cc1c[nH]cn1)C(=O)N[C@@H](C)C(=O)N[C@@H](CCCNC(=N)N)C(=O)N[C@@H](Cc1c[nH]c2ccccc12)C(=O)NCC(=O)N[C@@H](CCCCN)C(=O)N1CCC[C@H]1C(=O)N[C@H](C(N)=O)C(C)C [[Ala^7]α-MSH]	260 fold	500 fold	91 fold	–
–	–	–	2.07 ± 0.42 nM	6 fold	did not affect the agonist potency	29 fold	CCCC[C@H](NC(=O)[C@H](CO)NC(=O)[C@H](Cc1ccc(O)cc1)NC(=O)[C@H](CO)NC(C)=O)C(=O)N[C@@H](CCC(=O)O)C(=O)N[C@@H](Cc1c[nH]cn1)C(=O)N[C@H](Cc1ccccc1)C(=O)N[C@@H](C)C(=O)N[C@@H](Cc1c[nH]c2ccccc12)C(=O)NCC(=O)N[C@@H](CCCCN)C(=O)N1CCC[C@H]1C(=O)N[C@H](C(N)=O)C(C)C [[Ala^8]NDP-MSH, Ac-Ser-Tyr-Ser-Nle-Glu-His-DPhe-Ala-Trp-Gly-Lys-Pro-Val-NH2]	–	–	–	fold agonist potency loss at the hMC4R relative to NDP-MSH (hMC4R [6]): 32 fold
200 fold	5 fold	470 fold	670 ± 215 nM	–	–	–	CSCC[C@H](NC(=O)[C@H](CO)NC(=O)[C@H](Cc1ccc(O)cc1)NC(=O)[C@H](CO)NC(C)=O)C(=O)N[C@@H](CCC(=O)O)C(=O)N[C@@H](Cc1c[nH]cn1)C(=O)N[C@@H](Cc1ccccc1)C(=O)N[C@@H](C)C(=O)N[C@@H](Cc1c[nH]c2ccccc12)C(=O)NCC(=O)N[C@@H](CCCCN)C(=O)N1CCC[C@H]1C(=O)N[C@H](C(N)=O)C(C)C [[Ala^8]α-MSH]	100 fold	2080 fold	200 fold	selectivity for the mMC5R over the mMC4R (mMC5R; from agonist EC50 values): 120 fold
–	–	–	295 ± 92 nM	180 fold	220 fold	2120 fold	CCCC[C@H](NC(=O)[C@H](CO)NC(=O)[C@H](Cc1ccc(O)cc1)NC(=O)[C@H](CO)NC(C)=O)C(=O)N[C@@H](CCC(=O)O)C(=O)N[C@@H](Cc1c[nH]cn1)C(=O)N[C@H](Cc1ccccc1)C(=O)N[C@@H](CCCNC(=N)N)C(=O)N[C@@H](C)C(=O)NCC(=O)N[C@@H](CCCCN)C(=O)N1CCC[C@H]1C(=O)N[C@H](C(N)=O)C(C)C [[Ala^9]NDP-MSH, Ac-Ser-Tyr-Ser-Nle-Glu-His-DPhe-Arg-Ala-Gly-Lys-Pro-Val-NH2]	–	–	–	activation of the hMC4R (hMC4R [6]; at concentrations up to 100 μM): not to activate; agonist efficacy at the hMC1R (hMC1R [7]): full agonist; fold less potent than NDP-MSH at the hMC1R (hMC1R [7]): 3 fold; mMC3R fold difference (mMC3R): 1230 fold
570 fold	1370 fold	1500 fold	15700 ± 4870 nM	–	–	–	CSCC[C@H](NC(=O)[C@H](CO)NC(=O)[C@H](Cc1ccc(O)cc1)NC(=O)[C@H](CO)NC(C)=O)C(=O)N[C@@H](CCC(=O)O)C(=O)N[C@@H](Cc1c[nH]cn1)C(=O)N[C@@H](Cc1ccccc1)C(=O)N[C@@H](CCCNC(=N)N)C(=O)N[C@@H](C)C(=O)NCC(=O)N[C@@H](CCCCN)C(=O)N1CCC[C@H]1C(=O)N[C@H](C(N)=O)C(C)C [[Ala^9]α-MSH]	120 fold	2000 fold	83 fold	EC50 (mMC5R; mMC5R EC50, bound, Table 2, EC50 higher than 20 μM): > 20000 nM; EC50 (mMC4R; mMC4R EC50, bound, Table 2, EC50 higher than 20 μM): > 20000 nM
